From patent US20150259747A1, “METHOD OF PREDICTING A PREDISPOSITION TO QT PROLONGATION” (priority 2007, published 2015) come the findings set out here.

This series has as its system individuals genotyped at the rs993648 locus. The series is described as follows: QT interval change after two weeks of oral iloperidone in 174 individuals genotyped at the CERKL rs993648 locus. The series is classed as in vivo, human. To be noted: iloperidone 24 mg/day B.I.D. oral; for High QT, - test (number of individuals) / Low QT, - test (number of individuals): rs993648 genotype AB (- test); for High QT, - test (number of individuals) / High QT, + test (number of individuals) / Low QT, - test (number of individuals) / Low QT, + test (number of individuals): n=174; for High QT, + test (number of individuals) / Low QT, + test (number of individuals): rs993648 genotype non-AB (+ test). On the procedure:
Since the QT interval changes with changes in heart rate, the QT interval is often measured as a corrected QT (QTc) interval. Any number of formulas may be employed to calculate the QTc, including, for example, the Fridericia formula (QTcF), the Bazett formula (QTcB), and the Rautaharju formula (QTp), among others. In the studies described herein, QT was calculated using the Fridericia formula. However, the present invention includes the use of any such formula or method for calculating a QTc or an uncorrected QT. Using the genotypes at the SNP loci above, it is possible, with a high degree of certainty, to predict an individual's predisposition to QT prolongation.

[1] abbreviates: QTc change threshold >5 msec not exceeded.
The mark [2] stands for this setting: QTc change threshold >15 msec not exceeded.
Setting [3] is: QTc change threshold >30 msec not exceeded.

Consider `COc1cc(C(C)=O)ccc1OCCCN1CCC(c2noc3cc(F)ccc23)CC1` [iloperidone], for which the “Odds Ratio” value (QTc change >5 msec vs rs993648 non-AB genotype) stood at 3.62, the “Odds Ratio” value (QTc change >15 msec vs rs993648 non-AB genotype) is recorded as 4.45 and the “Odds Ratio” value (QTc change >30 msec vs rs993648 non-AB genotype) is recorded as 6.16. For the same compound, the “High QT, - test (number of individuals)” value is on record as 38 (QTc change >5 msec), 18 (QTc change >15 msec) and 4 (QTc change >30 msec). Besides, the “High QT, + test (number of individuals)” value reads like this: (QTc change >5 msec) 72; (QTc change >15 msec) 53; (QTc change >30 msec) 23. Also, the “Low QT, - test (number of individuals)” value under setting [1] was found to be 42; the “Low QT, - test (number of individuals)” value under setting [2] is 62; the “Low QT, - test (number of individuals)” value under setting [3] is 76. In addition, the “Low QT, + test (number of individuals)” value is listed as 22 under setting [1], 41 under setting [2] and 71 under setting [3].
